# Experimental data as given in article PMC10141592, “Stretching Peptides to Generate Small Molecule β-Strand Mimics” (ACS Central Science, 2023).
# Read-outs that look alike come from different tables or passages of the source. *1 amine or outer side, *2 acyl side, *3 side chain or, on linkers, in order; H or OH if unused. Where a SMILES comes first, the peptide text is derived from it. Bridges are numbered along the chain shown (N, C = ends). [ ]: non-standard residue; d: D form. The star is where a group is joined. Dodecyloxycarbonyl = CCCCCCCCCCCCOC(=O)*; CH2C≡CC≡CCH2 = C(C#CC[*:2])#CC[*:1]; NMePra = C#CC[C@H](NC)C(=O)O; X1 = CCCCCCCCCCCCCCCCOC(=O)*; NMeS = CN[C@@H](CO)C(=O)O; Dab = NCC[C@H](N)C(=O)O; Propargyl = C#CC*
# How the values were obtained:
# S. epidermidis RP26a [1] = assay type: cell-based; conditions: 24 h
# Description: (§1) Minimum Inhibitory Concentration Assay
# (§2) MICs were performed in accordance with the broth microdilution protocol from the Clinical and Standards Laboratory Institute.3 Alkynomycins were dissolved at 10 mg/mL in DMSO and two-fold serial dilutions were made across a 96-well plate containing Muller-Hinton (MH) broth. One plate was used for each indicator organism, and each well reached a final inoculum of 5×10^5 colony forming units per mL. Using OD600 readings normalized to a negative control, MICs were recorded as the lowest concentration at which growth was inhibited after a 24 hr incubation at 37 C. Controls were included on each plate to ensure peptide and media sterility. MICs are reported in Table 2 and Tables S4, S5 as an average of at least three independent trials.
# (§3) Indicator organisms were stored at -80 C as glycerol stocks. Each organism was streaked onto tryptic soy agar and grown for 24 hr at 37 C. Single colonies were picked and used to inoculate MH broth. Bacteria culture was diluted to reach an OD600 of 0.015 prior to being used for MIC assays. […]
# MRSA USA 300 [2] = assay type: cell-based; conditions: USA 300, 24 h
# Description: as §1, §2, §3
# [3] = tested on: E. coli BAS901 (permeabilized); assay type: cell-based; conditions: CLSI broth microdilution, Muller-Hinton broth, 5×10^5 CFU/mL, 24 hr at 37 C, OD600, performed in triplicate
# Description: as §1, §2, §3
# E. coli MG1655 [4] = assay type: cell-based; conditions: MG1655, 24 h
# Description: as §1, §2, §3
# S. epidermidis RP26a [5] = tested on: S. epidermidis RP26a; parameters: method as in 2 sources, ref 38 = [38]; PMID 21095572; doi:10.1016/j.chembiol.2010.09.009; Smith P. A.; Roberts T. C.; Romesberg F. E. Broad-spectrum antibiotic activity of the arylomycin natural products is masked by natural target mutations . Chem. Biol. 2010 , 17 ( 11 ), 1223 – 1231 . ||| ref 38 (a number printed in a supplementary file, which may have a reference list of its own: not looked up in the article's list); conditions: previously reported value provided for reference; cited from earlier work
# [6] = tested on: E. coli BAS901 (permeabilized); conditions: previously reported value provided for reference; cited from earlier work
# MRSA USA 300 [7] = conditions: previously reported value provided for reference; cited from earlier work
# Source text: Table 2 Minimum Inhibitory Concentration of Alkynomycins against Gram-Positive and Gram-Negative Bacteria ^a | column: MRSA
# E. coli MG1655 [8] = tested on: E. coli MG1655; parameters: method as in 2 sources, ref 38 = [38]; PMID 21095572; doi:10.1016/j.chembiol.2010.09.009; Smith P. A.; Roberts T. C.; Romesberg F. E. Broad-spectrum antibiotic activity of the arylomycin natural products is masked by natural target mutations . Chem. Biol. 2010 , 17 ( 11 ), 1223 – 1231 . ||| ref 38 (a number printed in a supplementary file, which may have a reference list of its own: not looked up in the article's list); conditions: previously reported value provided for reference; cited from earlier work
compound,measurement,setting,value
CCCCCCCCCCCCOC(=O)N[C@@H](CCN)C(=O)N(C)[C@H]1CC#CC#CC[C@@H](C(N)=O)NC(=O)[C@H](C)NC1=O [Compound 10],MIC S. epidermidis,S. epidermidis RP26a [1],4 µg/mL
same,MIC MRSA,MRSA USA 300 [2],16 µg/mL
same,MIC E. coli Δ,[3],4 µg/mL
CCCCCCCCCCCCCCCCOC(=O)N[C@@H](CCN)C(=O)N(C)[C@H]1CC#CC#CC[C@@H](C(N)=O)NC(=O)[C@H](C)NC1=O [Compound 11],MIC S. epidermidis,S. epidermidis RP26a [1],4 µg/mL
same,MIC E. coli,E. coli MG1655 [4],> 64 µg/mL
same,MIC MRSA,MRSA USA 300 [2],8 µg/mL
same,MIC E. coli Δ,[3],4 µg/mL
CCCCCCCCCCCCOC(=O)N[C@@H](CCN)C(=O)N(C)[C@@H]1CC#CC#CC[C@H](C(N)=O)NC(=O)[C@H](C)NC1=O [Compound 12],MIC S. epidermidis,S. epidermidis RP26a [1],16 µg/mL
same,MIC E. coli,E. coli MG1655 [4],> 64 µg/mL
same,MIC E. coli Δ,[3],16 µg/mL
CCCCCCCCCCCCCCCCOC(=O)N[C@@H](CCN)C(=O)N(C)[C@@H]1CC#CC#CC[C@H](C(N)=O)NC(=O)[C@H](C)NC1=O [Compound 13],MIC S. epidermidis,S. epidermidis RP26a [1],16 µg/mL
same,MIC E. coli,E. coli MG1655 [4],> 64 µg/mL
same,MIC E. coli Δ,[3],32 µg/mL
CCCCCCCCCCCCOC(=O)N[C@@H](CCN)C(=O)N(C)[C@H]1CC#CC#CCOC[C@@H](C(N)=O)NC(=O)[C@H](C)NC1=O [Compound 14],MIC S. epidermidis,S. epidermidis RP26a [1],16 µg/mL
same,MIC E. coli,E. coli MG1655 [4],> 64 µg/mL
same,MIC MRSA,MRSA USA 300 [2],16 µg/mL
same,MIC E. coli Δ,[3],16 µg/mL
CCCCCCCCCCCCCCCCOC(=O)N[C@@H](CCN)C(=O)N(C)[C@H]1CC#CC#CCOC[C@@H](C(N)=O)NC(=O)[C@H](C)NC1=O [Compound 15],MIC S. epidermidis,S. epidermidis RP26a [1],32 µg/mL
same,MIC E. coli,E. coli MG1655 [4],> 64 µg/mL
same,MIC MRSA,MRSA USA 300 [2],16 µg/mL
same,MIC E. coli Δ,[3],16 µg/mL
CCCCCCCCCCCCOC(=O)N[C@@H](CCN)C(=O)N(C)[C@H]1CC#CC#CC[C@H](C(N)=O)NC(=O)[C@H](C)NC1=O [Compound S1],MIC S. epidermidis,S. epidermidis RP26a [1],> 64 µg/mL
same,MIC E. coli,E. coli MG1655 [4],> 64 µg/mL
same,MIC E. coli Δ,[3],> 64 µg/mL
CCCCCCCCCCCCCCCCOC(=O)N[C@@H](CCN)C(=O)N(C)[C@H]1CC#CC#CC[C@H](C(N)=O)NC(=O)[C@H](C)NC1=O [Compound S2],MIC S. epidermidis,S. epidermidis RP26a [1],> 64 µg/mL
same,MIC E. coli,E. coli MG1655 [4],> 64 µg/mL
same,MIC E. coli Δ,[3],> 64 µg/mL
CCCCCCCCCCCCOC(=O)N[C@@H](CCN)C(=O)N(C)[C@H]1COCC#CC#CC[C@@H](C(N)=O)NC(=O)[C@H](C)NC1=O [Compound S3],MIC S. epidermidis,S. epidermidis RP26a [1],> 64 µg/mL
same,MIC E. coli,E. coli MG1655 [4],> 64 µg/mL
same,MIC E. coli Δ,[3],> 64 µg/mL
CCCCCCCCCCCCCCCCOC(=O)N[C@@H](CCN)C(=O)N(C)[C@H]1COCC#CC#CC[C@@H](C(N)=O)NC(=O)[C@H](C)NC1=O [Compound S4],MIC S. epidermidis,S. epidermidis RP26a [1],64 µg/mL
same,MIC E. coli,E. coli MG1655 [4],> 64 µg/mL
same,MIC E. coli Δ,[3],64 µg/mL
CCCCCCCCCCCCOC(=O)N[C@@H](CCN)C(=O)N(C)[C@H]1COCC#CC#CC[C@H](C(N)=O)NC(=O)[C@H](C)NC1=O [Compound S5],MIC S. epidermidis,S. epidermidis RP26a [1],> 64 µg/mL
same,MIC E. coli,E. coli MG1655 [4],> 64 µg/mL
same,MIC E. coli Δ,[3],> 64 µg/mL
CCCCCCCCCCCCCCCCOC(=O)N[C@@H](CCN)C(=O)N(C)[C@H]1COCC#CC#CC[C@H](C(N)=O)NC(=O)[C@H](C)NC1=O [Compound S6],MIC S. epidermidis,S. epidermidis RP26a [1],64 µg/mL
same,MIC E. coli,E. coli MG1655 [4],> 64 µg/mL
same,MIC E. coli Δ,[3],64 µg/mL
CCCCCCCCCCCCOC(=O)N[C@@H](CCN)C(=O)N(C)[C@H]1COCC#CC#CCOC[C@@H](C(N)=O)NC(=O)[C@H](C)NC1=O [Compound S7] (Dodecyloxycarbonyl-[Dab][NMeS]AS-NH2; linker 2-4 via CH2C≡CC≡CCH2),MIC S. epidermidis,S. epidermidis RP26a [1],> 64 µg/mL
same,MIC E. coli,E. coli MG1655 [4],> 64 µg/mL
same,MIC E. coli Δ,[3],> 64 µg/mL
CCCCCCCCCCCCCCCCOC(=O)N[C@@H](CCN)C(=O)N(C)[C@H]1COCC#CC#CCOC[C@@H](C(N)=O)NC(=O)[C@H](C)NC1=O [Compound S8] (X1-[Dab][NMeS]AS-NH2; linker 2-4 via CH2C≡CC≡CCH2),MIC S. epidermidis,S. epidermidis RP26a [1],64 µg/mL
same,MIC E. coli,E. coli MG1655 [4],> 64 µg/mL
same,MIC E. coli Δ,[3],64 µg/mL
CCCCCCCCCCCCOC(=O)N[C@@H](CCN)C(=O)N[C@H]1CC#CC#CC[C@@H](C(N)=O)NC(=O)[C@H](C)NC1=O [Compound S9],MIC S. epidermidis,S. epidermidis RP26a [1],> 64 µg/mL
same,MIC E. coli,E. coli MG1655 [4],> 64 µg/mL
same,MIC E. coli Δ,[3],> 64 µg/mL
C#CCOC[C@H](NC(=O)[C@H](C)NC(=O)[C@H](CC#C)N(C)C(=O)[C@H](CCN)NC(=O)OCCCCCCCCCCCC)C(N)=O [Compound S10] (Dodecyloxycarbonyl-[Dab][NMePra]AS(Propargyl)-NH2),MIC S. epidermidis,S. epidermidis RP26a [1],> 64 µg/mL
same,MIC E. coli,E. coli MG1655 [4],> 64 µg/mL
Arylomycin A-C16,MIC S. epidermidis,S. epidermidis RP26a [5],0.5 µg/mL
same,MIC E. coli Δ,[6],8 µg/mL
same,MIC MRSA,MRSA USA 300 [7],32 µg/mL
same,MIC E. coli,E. coli MG1655 [8],> 64 µg/mL
